“And” between values parts separate entries of the source, which are not always exact repeats. Identical values can stand only once. Like-named read-outs stand apart in the source and are kept apart here.
How the values were obtained:
[1] = target: HsProRS (Homo sapiens, UniProt P07814); experiment: TR-FRET ligand displacement assay with tracer MAT379 (CoraFluor-1-Halo and anti-His6 antibody formats); assay type: binding; design: made in house; host or cells: E. coli SoluBL-21; conditions: for HsProRS % signal at 10 μM: no added proline/ATP (-)
HsProRS, sequence (P07814 996-1512): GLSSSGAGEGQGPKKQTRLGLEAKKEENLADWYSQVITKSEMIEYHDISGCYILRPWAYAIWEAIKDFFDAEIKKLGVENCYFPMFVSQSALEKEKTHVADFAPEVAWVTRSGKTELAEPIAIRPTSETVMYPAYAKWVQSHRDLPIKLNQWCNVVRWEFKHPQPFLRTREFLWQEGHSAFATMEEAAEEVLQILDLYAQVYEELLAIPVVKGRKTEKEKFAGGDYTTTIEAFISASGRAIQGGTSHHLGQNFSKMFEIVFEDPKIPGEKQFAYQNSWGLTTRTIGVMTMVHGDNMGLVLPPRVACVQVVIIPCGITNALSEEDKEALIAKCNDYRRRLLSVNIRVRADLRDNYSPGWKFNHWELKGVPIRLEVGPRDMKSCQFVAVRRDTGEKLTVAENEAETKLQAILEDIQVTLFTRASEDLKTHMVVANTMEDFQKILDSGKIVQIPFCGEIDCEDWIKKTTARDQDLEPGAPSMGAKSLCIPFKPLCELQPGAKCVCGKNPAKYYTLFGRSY

[2] = target: T1, PfcProRS (Plasmodium falciparum, UniProt Q8I5R7); assay type: binding; conditions: replicates 1-3
T1 construct: made in house; host or cells: E. coli SoluBL-21
T1 sequence (Q8I5R7 249-746): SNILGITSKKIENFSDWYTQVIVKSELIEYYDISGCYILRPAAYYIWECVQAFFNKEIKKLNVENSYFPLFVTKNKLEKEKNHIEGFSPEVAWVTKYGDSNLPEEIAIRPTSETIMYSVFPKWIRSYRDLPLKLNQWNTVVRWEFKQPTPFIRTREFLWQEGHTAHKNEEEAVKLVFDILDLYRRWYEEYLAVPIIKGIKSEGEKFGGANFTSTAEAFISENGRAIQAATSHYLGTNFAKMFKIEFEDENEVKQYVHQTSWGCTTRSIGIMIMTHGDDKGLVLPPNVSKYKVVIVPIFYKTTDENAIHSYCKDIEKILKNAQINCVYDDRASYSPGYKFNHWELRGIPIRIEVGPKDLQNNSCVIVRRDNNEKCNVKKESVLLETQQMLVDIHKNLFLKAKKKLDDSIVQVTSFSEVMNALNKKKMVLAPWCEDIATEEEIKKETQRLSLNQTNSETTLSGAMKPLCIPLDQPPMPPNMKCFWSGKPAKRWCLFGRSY

[3] = test system: P. falciparum Dd2-2D4; experiment: P. falciparum asexual blood stage (ABS) growth assay, SYBR Green, 72 h, wild-type parasites; assay type: cell-based, Plasmodium falciparum; conditions: Plasmodium falciparum, DD2; SI Fig 16b; values on -log scale; read-out: ABS - Dd2-2D4 (converted)
[4] = read-out: HsProRS IC50 + 100 μM proline, + 100 μM proline

SMILES: Nc1nccnc1C(=O)NC1CCCCC1 [compound 48]
- IC50 [1]: > 10 µM
- HsProRS % signal at 10 μM, + 100 μM proline ([1]; + 100 μM proline): 87.4%
- HsProRS % signal at 10 μM [1]: 89.6%
- IC50 [1, 4]: > 10 µM
- Normalized response, dose-response replicates (SI Fig 14) ([2]; Log[inhibitor] (M) -5.000): 7.98E-01 and 9.64E-01 and 8.59E-01
- Normalized response, dose-response replicates (SI Fig 14) ([2]; Log[inhibitor] (M) -5.301): 1.00E+00 and 9.90E-01 and 9.60E-01
- Normalized response, dose-response replicates (SI Fig 14) ([2]; Log[inhibitor] (M) -5.601): 1.12E+00 and 9.39E-01 and 1.04E+00
- Normalized response, dose-response replicates (SI Fig 14) ([2]; Log[inhibitor] (M) -5.904): 1.09E+00 and 1.16E+00 and 9.71E-01
- Normalized response, dose-response replicates (SI Fig 14) ([2]; Log[inhibitor] (M) -6.208): 1.14E+00 and 9.41E-01 and 1.00E+00
- Normalized response, dose-response replicates (SI Fig 14) ([2]; Log[inhibitor] (M) -6.509): 1.15E+00 and 1.05E+00 and 9.08E-01
- Normalized response, dose-response replicates (SI Fig 14) ([2]; Log[inhibitor] (M) -6.796): 9.89E-01 and 9.81E-01 and 1.09E+00
- Normalized response, dose-response replicates (SI Fig 14) ([2]; Log[inhibitor] (M) -7.108): 9.93E-01 and 1.12E+00 and 9.45E-01
- Normalized response, dose-response replicates (SI Fig 14) ([2]; Log[inhibitor] (M) -7.409): 1.04E+00 and 1.09E+00 and 1.06E+00
- Normalized response, dose-response replicates (SI Fig 14) ([2]; Log[inhibitor] (M) -7.710): 1.09E+00 and 9.79E-01 and 1.07E+00
- Normalized response, dose-response replicates (SI Fig 14) ([2]; Log[inhibitor] (M) -8.000): 1.09E+00 and 1.00E+00 and 1.03E+00
- Normalized response, dose-response replicates (SI Fig 14) ([2]; Log[inhibitor] (M) -8.301): 1.08E+00 and 1.10E+00 and 1.07E+00
- Normalized response, dose-response replicates (SI Fig 14) ([2]; Log[inhibitor] (M) -8.602): 1.05E+00 and 1.09E+00 and 1.03E+00
- Normalized response, dose-response replicates (SI Fig 14) ([2]; Log[inhibitor] (M) -9.000): 1.01E+00 and 1.14E+00 and 9.74E-01
- Normalized response, dose-response replicates (SI Fig 14) ([2]; Log[inhibitor] (M) -9.301): 1.02E+00 and 1.01E+00 and 1.04E+00
- EC50 [3]: 8.75 µM

SMILES: O=C(NC1CCCCC1)c1nccnc1NC(=O)C1Cc2ccccc2C1 [compound 49]
- IC50 [1]: > 10 µM
- HsProRS % signal at 10 μM, + 100 μM proline ([1]; + 100 μM proline): 103%
- HsProRS % signal at 10 μM [1]: 90.3%
- IC50 [1, 4]: > 10 µM
- Normalized response, dose-response replicates (SI Fig 14) ([2]; Log[inhibitor] (M) -5.000): 8.45E-01 and 8.81E-01 and 7.61E-01
- Normalized response, dose-response replicates (SI Fig 14) ([2]; Log[inhibitor] (M) -5.301): 9.54E-01 and 9.61E-01 and 9.77E-01
- Normalized response, dose-response replicates (SI Fig 14) ([2]; Log[inhibitor] (M) -5.601): 1.16E+00 and 9.36E-01 and 1.07E+00
- Normalized response, dose-response replicates (SI Fig 14) ([2]; Log[inhibitor] (M) -5.904): 8.95E-01 and 1.06E+00 and 1.02E+00
- Normalized response, dose-response replicates (SI Fig 14) ([2]; Log[inhibitor] (M) -6.208): 1.16E+00 and 9.70E-01 and 1.06E+00
- Normalized response, dose-response replicates (SI Fig 14) ([2]; Log[inhibitor] (M) -6.509): 1.04E+00 and 1.06E+00 and 1.11E+00
- Normalized response, dose-response replicates (SI Fig 14) ([2]; Log[inhibitor] (M) -6.796): 1.05E+00 and 9.78E-01 and 1.11E+00
- Normalized response, dose-response replicates (SI Fig 14) ([2]; Log[inhibitor] (M) -7.108): 1.04E+00 and 1.10E+00 and 1.05E+00
- Normalized response, dose-response replicates (SI Fig 14) ([2]; Log[inhibitor] (M) -7.409): 1.08E+00 and 9.76E-01 and 1.10E+00
- Normalized response, dose-response replicates (SI Fig 14) ([2]; Log[inhibitor] (M) -7.710): 9.25E-01 and 1.04E+00 and 1.10E+00
- Normalized response, dose-response replicates (SI Fig 14) ([2]; Log[inhibitor] (M) -8.000): 1.07E+00 and 1.04E+00 and 1.10E+00
- Normalized response, dose-response replicates (SI Fig 14) ([2]; Log[inhibitor] (M) -8.301): 9.50E-01 and 1.14E+00 and 9.21E-01
- Normalized response, dose-response replicates (SI Fig 14) ([2]; Log[inhibitor] (M) -8.602): 9.83E-01 and 1.05E+00 and 9.81E-01
- Normalized response, dose-response replicates (SI Fig 14) ([2]; Log[inhibitor] (M) -9.000): 1.05E+00 and 1.09E+00 and 1.08E+00
- Normalized response, dose-response replicates (SI Fig 14) ([2]; Log[inhibitor] (M) -9.301): 1.08E+00 and 1.02E+00 and 9.82E-01
- EC50 [3]: 6.81 µM

SMILES: O=C(NC1Cc2ccccc2C1)c1nccnc1NS(=O)(=O)C1CCCCC1 [compound 50]
- IC50 [1]: > 10 µM
- HsProRS % signal at 10 μM, + 100 μM proline ([1]; + 100 μM proline): 84.5%
- HsProRS % signal at 10 μM [1]: 87.7%
- IC50 [1, 4]: > 10 µM
- Normalized response, dose-response replicates (SI Fig 14) ([2]; Log[inhibitor] (M) -5.000): 8.68E-01 and 9.74E-01 and 9.94E-01
- Normalized response, dose-response replicates (SI Fig 14) ([2]; Log[inhibitor] (M) -5.301): 9.83E-01 and 9.53E-01 and 9.64E-01
- Normalized response, dose-response replicates (SI Fig 14) ([2]; Log[inhibitor] (M) -5.601): 9.71E-01 and 9.90E-01 and 1.02E+00
- Normalized response, dose-response replicates (SI Fig 14) ([2]; Log[inhibitor] (M) -5.904): 1.05E+00 and 1.15E+00 and 1.14E+00
- Normalized response, dose-response replicates (SI Fig 14) ([2]; Log[inhibitor] (M) -6.208): 1.03E+00 and 9.74E-01 and 1.18E+00
- Normalized response, dose-response replicates (SI Fig 14) ([2]; Log[inhibitor] (M) -6.509): 1.04E+00 and 9.48E-01 and 1.06E+00
- Normalized response, dose-response replicates (SI Fig 14) ([2]; Log[inhibitor] (M) -6.796): 9.91E-01 and 1.03E+00 and 9.32E-01
- Normalized response, dose-response replicates (SI Fig 14) ([2]; Log[inhibitor] (M) -7.108): 9.63E-01 and 9.98E-01 and 1.15E+00
- Normalized response, dose-response replicates (SI Fig 14) ([2]; Log[inhibitor] (M) -7.409): 9.71E-01 and 8.81E-01 and 1.12E+00
- Normalized response, dose-response replicates (SI Fig 14) ([2]; Log[inhibitor] (M) -7.710): 9.98E-01 and 1.04E+00 and 1.13E+00
- Normalized response, dose-response replicates (SI Fig 14) ([2]; Log[inhibitor] (M) -8.000): 1.13E+00 and 9.44E-01 and 9.76E-01
- Normalized response, dose-response replicates (SI Fig 14) ([2]; Log[inhibitor] (M) -8.301): 8.99E-01 and 9.55E-01 and 8.96E-01
- Normalized response, dose-response replicates (SI Fig 14) ([2]; Log[inhibitor] (M) -8.602): 9.78E-01 and 9.85E-01 and 1.02E+00
- Normalized response, dose-response replicates (SI Fig 14) ([2]; Log[inhibitor] (M) -9.000): 9.55E-01 (2×) and 1.01E+00
- Normalized response, dose-response replicates (SI Fig 14) ([2]; Log[inhibitor] (M) -9.301): 9.48E-01 and 9.83E-01 and 9.54E-01
- EC50 [3]: 13 µM
